The experiment relates to SK-OV3 cells. The experiment can be described thus: preclinical efficacy study on the human ovarian tumor model in mice (tumor volume). Type of experiment: in vivo. Particulars: via tail vein once every three days, 4 doses, measured every third day through the 22nd day.

Experimental: A preclinical efficacy study was conducted on the human ovarian tumor model in mice. The tumor cells used were SK-OV3 cells purchased from ATCC. The mice were 4-6 week old Athymic (nu+/nu+) female mice. The IRL-1620 was intravenously-infused slowly (over 30 seconds).
A solid tumor was induced in each animal using 3 million viable SK-OV3 cells suspended in 200 µl of PBS per animal. After 10 days, when established tumors of 100 mm^3 in diameter were detectable, the mice randomly were divided into six groups of 6 animals per group with each group receiving different treatments. The treatment regimens were administered via the tail vein every third day for a total of 4 doses. […]
The effect of these treatments on the tumor size was measured using a digital caliper for a total of 12 days after drug administration. The mice were monitored and weighed on every third day. […] Progression, stasis, partial regression or complete regression of tumor growth were measured by tumor load measurements with calipers and was calculated using the following formula: (3.14/6) x larger diameter x smaller diameter.

As for `O=P1(N(CCCl)CCCl)NCCCO1` (centres unmarked) [saline/cyclophosphamide, cyclophosphamide], the tumor volume entry (Figure 3, cyclophosphamide 75 mg/kg with saline or IRL-1620 3 nmol/kg) is “significant reduction in tumor volume”.

As for `N.N.[Cl][Pt][Cl]` [saline/cisplatin, cisplatin], the tumor volume result (Figure 1, cisplatin 2.5 mg/kg with saline or IRL-1620 3 nmol/kg) is on record as “significant reduction in tumor volume”.
